Assay results: patent US11479533B2, “Inhibitors of Rho associated coiled-coil containing protein kinase” (KADMON CORPORATION, LLC, priority 2017, dated 2022)
Like-named read-outs stand apart in the source and are kept apart here.

Key:
[1] = system: human oligodendrocyte/neuron progenitor cells; test: Aβ 1-42 induced cell death assay on human oligodendrocyte/neuron progenitors; format: cell-based; conditions: 3 μM, 10.5 μM Aβ1-42, 24 hour
Description: Aβ 1-42 induced cell death assay on human oligodendrocyte/neuron progenitors in 96-well plate. Cells were seeded on poly-L-ornithine and laminin coated plates at a density of 8,000 cells per well and maintained in expansion media until Day 3, then media was replaced with fresh spontaneous differentiation media containing testing compounds and IncuCyte Annexin V Red Reagent (1:200 dilution) (Essen BioScience Cat. No. 4641). After the pre-incubation period of 30 minutes at 37° C., 10.5 μM Aβ 1-42 (Bachem Product No. H-8146) was added directly in the pretreatment solution. Neurite length and total Annexin V positive area were analyzed by IncuCyte S3 Live Cell Analysis System every 2 hours.
In addition to promoting neuroregeneration, ROCK inhibitors have been reported to exert neuroprotective effects and prolong neuronal survival. Here we test the neuroprotective effect of ROCK inhibitors against Aβ1-42. Human oligodendrocyte/neuron progenitor cells were pre-incubated with ROCK inhibitors for 30 minutes before exposing to 10.5 μM Aβ1-42. IncuCyte Annexin V Red Reagent was added to culture media to label cell apoptosis. Pictures were taken by IncuCyte S3 and total Annexin V positive area was analyzed by IncuCyte S3 base software. Neurite length was quantified by IncuCyte NeuroTrack Software Module, see FIGS. 3b and 3c.

[2] = system: ppMlc (T18/S19) and pMypt (T853) in Svec 4-10 mouse endothelial cells; test: Western blot of Svec 4-10 cell lysates; format: cell-based; conditions: 110 nM, 120 min
Description: FIG. 1d. Western blot of SVEC4-10 cell lysates to visualize ppMlc (T18/S19) & pMYPT (T853) levels following treatment with the compound of Example 2 for 120 min. SVEC4-10 cells were treated with the compound and phosphorylated proteins were visualized by western blotting.
Compounds ROCK activities were tested in additional cell types. Svec 4-10 mouse endothelial cells were treated with the compound of Example 2 for 120 min and ppMlc (T18/S19) and pMypt (T853) levels were visualized by western blotting.

[3] = molecular target: recombinant ROCK2 (amino acids 1-552) (Homo sapiens (Human), UniProt O75116); test: Z'-lyte kinase assay, ROCK2; format: biochemical
How it was run: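 Inhibition of recombinant human ROCK2 (residues 1-552, sourced from ThermoFisher Scientific) was assessed in vitro with the Z'-lyte kinase kit. Kinase activity with compound was normalized to DMSO control to give percent inhibition. IC50s came from 9-point 2-fold serial dilutions fitted by nonlinear regression in GraphPad Prism.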

[4] = system: ppMlc (T18/S19) levels in A7R5 cells; test: A7R5 in-cell ELISA assay (ppMlc); format: cell-based, rat; conditions: Rattus norvegicus, A7R5, A7R5 cells
How it was run: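 Rat aortic smooth muscle A7R5 cells in DMEM with 10% FBS, seeded 24 h, then treated 90 min with 9-point 2-fold compound dilutions. ppMlc (T18/S19) measured by colorimetric in-cell ELISA; cellular IC50 from nonlinear regression curve fit.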

[5] = Brain and plasma concentrations in mouse by HPLC/MS/MS; format: in vivo; conditions: 2.5 mg/kg IV
Description: Brain and plasma concentrations of select ROCK inhibitors were evaluated in mouse by HPLC/MS/MS at 15 min and 2 hrs following 2.5 mg/kg IV drug administration.

[6] = system: ACTA2-promoter-driven-luciferase in NIH3T3 cells; test: NIH3T3 Acta2-promoter driven-luciferase assay; format: cell-based; conditions: Mus musculus, plus TGFβ1, 24 hr, read-out: NIH3T3, Acta2-luc, IC50
How it was run: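 Stable NIH3T3 line carrying luciferase reporter under human ACTA2 promoter (−1000-1 bp); confluent cells given 9-point compound dilutions with TGFβ1 for 24 hr. Lysed cells read for luciferase; IC50 from nonlinear regression fit.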

Chain of recombinant ROCK2 (amino acids 1-552) (O75116 1-552): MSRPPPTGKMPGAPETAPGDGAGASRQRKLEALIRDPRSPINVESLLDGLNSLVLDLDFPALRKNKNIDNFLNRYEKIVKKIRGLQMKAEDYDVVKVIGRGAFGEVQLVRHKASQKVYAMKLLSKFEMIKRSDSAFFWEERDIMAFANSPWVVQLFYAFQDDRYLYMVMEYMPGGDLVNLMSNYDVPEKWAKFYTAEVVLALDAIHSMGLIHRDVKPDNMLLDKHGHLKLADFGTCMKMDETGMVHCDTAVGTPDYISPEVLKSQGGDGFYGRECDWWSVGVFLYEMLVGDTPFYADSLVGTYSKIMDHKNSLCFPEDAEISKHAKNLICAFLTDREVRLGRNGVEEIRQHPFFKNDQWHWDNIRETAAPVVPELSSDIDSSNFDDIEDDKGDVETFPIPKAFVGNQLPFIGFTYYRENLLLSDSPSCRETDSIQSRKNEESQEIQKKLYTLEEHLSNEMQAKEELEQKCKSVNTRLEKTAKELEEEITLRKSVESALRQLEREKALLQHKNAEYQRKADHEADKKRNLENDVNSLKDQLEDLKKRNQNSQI

- IC50 [3]: 4 nM
- IC50 ([4]; Table 2, read-out: pMLC IC50 (nM) A7R5): 120 nM
- IC50 ([4]; ppMlc (T18/S19), in-cell ELISA, read-out: ppMlc IC50): 86 nM
- concentration at 0.25 hr ([5]; brain, 0.25 hr, read-out: Mean Conc. at 0.25 hr, Brain): 541 ng/g
- concentration at 2 hr ([5]; brain, 2 hr, read-out: Mean Conc. at 2 hr, Brain): 76.6 ng/g
- concentration at 0.25 hr ([5]; plasma, 0.25 hr, read-out: Mean Conc. at 0.25 hr, Plasma): 268 ng/mL
- concentration at 2 hr ([5]; plasma, 2 hr, read-out: Mean Conc. at 2 hr, Plasma): 25.7 ng/mL
- Kp at 0.25 h ([5]; brain/plasma, 0.25 hr, read-out: Mean Brain/Plasma Ratio at 0.25 hr): 2.01
- Kp at 2 h ([5]; brain/plasma, 2 hr, read-out: Mean Brain/Plasma Ratio at 2 hr): 2.99
SMILES: CNC(C(=O)Nc1ccc(-c2cn[nH]c2)cc1)c1cccc(OC)c1 (stereo not drawn) [Example 2, N-(4-(1H-pyrazol-4-yl)phenyl)-2-(3-methoxyphenyl)-2-(methylamino)acetamide]
- Aβ1-42 induced cell death (Annexin V area) [1]: significantly protect
- phosphorylation of ROCK targets MLC and MYPT1 [2]: efficiently blocked phosphorylation
- IC50 [6]: 352 nM
